# From the supplement of paper PMC11061612
# How the values were obtained:
# Assay in all cases: combination Emax (second highest fraction inhibited in the dose matrix, 72 h); higher = more inhibition; extreme values may be limits of the assay
# [1] = tested on: 8305C (Thyroid Gland Carcinoma)
# In short: (§1)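 Cell lines in DMEM/F12 or RPMI with 10% FBS were plated in 1536-well plates, held 24 hours at 37°C, 5% CO2, then given two-drug dose matrices for 72 hours (DMSO typically 0.2%). Viability was read by CellTiter-Glo 2.0 luminescence and scaled as inhibition from 0 (vehicle wells) to 1 (blank wells). Combination Emax is the second-highest inhibition in the matrix; Bliss excess is observed combination effect minus expected EA + EB − EA·EB, EA and EB being single-agent effects.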
# [2] = tested on: CAL-54 (Kidney Carcinoma)
# In short: as §1
# [3] = tested on: CAPAN-1 (Pancreatic Carcinoma)
# In short: as §1
# [4] = tested on: HARA (Squamous Cell Lung Carcinoma)
# In short: as §1
# [5] = tested on: HDLM-2 (Hodgkin's Lymphoma)
# In short: as §1
# [6] = tested on: Hs-633T (Other Solid Carcinomas)
# In short: as §1
# [7] = tested on: K5 (Thyroid Gland Carcinoma)
# In short: as §1
# [8] = tested on: LoVo (Colorectal Carcinoma)
# In short: as §1
# [9] = tested on: MDA-MB-468 (Breast Carcinoma)
# In short: as §1
# NB14 (Neuroblastoma) = tested on: NB14 (Neuroblastoma)
# In short: as §1
# NCI-H2795 (Mesothelioma) = tested on: NCI-H2795 (Mesothelioma)
# In short: as §1
# NCI-H28 (Mesothelioma) = tested on: NCI-H28 (Mesothelioma)
# In short: as §1
# [10] = tested on: NCI-H69 (Small Cell Lung Carcinoma)
# In short: as §1
# [11] = tested on: OC-314 (Ovarian Carcinoma)
# In short: as §1
# [12] = tested on: PCI-30 (Head and Neck Carcinoma)
# In short: as §1
# [13] = tested on: RPMI-6666 (Non-Cancerous)
# In short: as §1
# [14] = tested on: RT-112 (Bladder Carcinoma)
# In short: as §1
# [15] = tested on: SK-OV-3 (Ovarian Carcinoma)
# In short: as §1
# [16] = tested on: SUP-T1 (T-Lymphoblastic Leukemia)
# In short: as §1
# [17] = tested on: SW1116 (Colorectal Carcinoma)
# In short: as §1
SMILES,combination Emax [1],combination Emax [2],combination Emax [3],combination Emax [4],combination Emax [5],combination Emax [6],combination Emax [7],combination Emax [8],combination Emax [9],combination Emax (NB14 (Neuroblastoma)),combination Emax (NCI-H2795 (Mesothelioma)),combination Emax (NCI-H28 (Mesothelioma)),combination Emax [10],combination Emax [11],combination Emax [12],combination Emax [13],combination Emax [14],combination Emax [15],combination Emax [16],combination Emax [17]
"C=CCn1c(=O)c2cnc(Nc3ccc(N4CCN(C)CC4)cc3)nc2n1-c1cccc(C(C)(C)O)n1 [AZD1775] + Nc1ccn([C@@H]2O[C@H](CO)[C@@H](O)C2(F)F)c(=O)n1 [Gemcitabine] (first compound max 1 µM, partner max 0.3 µM)",0.574,0.787,0.697,0.912,0.763,0.863,0.568,0.808,0.733,1,0.785,0.685,0.611,0.972,0.677,0.917,0.956,0.583,0.862,0.405
"CN(CCO)CC[C@H](CSc1ccccc1)Nc1ccc(S(=O)(=O)NC(=O)c2ccc(N3CCC([C@@H](O)c4ccccc4-c4ccc(Cl)cc4)CC3)cc2)cc1S(=O)(=O)C(F)(F)F [AZD4320] + CC(=O)O[C@H]1C(=O)[C@@]2(C)[C@H]([C@H](OC(=O)c3ccccc3)[C@]3(O)C[C@H](OC(=O)[C@H](O)[C@@H](NC(=O)c4ccccc4)c4ccccc4)C(C)=C1C3(C)C)[C@]1(OC(C)=O)CO[C@@H]1C[C@@H]2O [Paclitaxel] (first compound max 1 µM, 7x7, partner max 3 µM)",0.846,0.773,0.874,0.999,1,1,0.94,0.746,0.881,1,0.837,0.823,0.991,1,0.875,1,0.991,0.978,0.852,0.586
"CN(CCO)CC[C@H](CSc1ccccc1)Nc1ccc(S(=O)(=O)NC(=O)c2ccc(N3CCC([C@@H](O)c4ccccc4-c4ccc(Cl)cc4)CC3)cc2)cc1S(=O)(=O)C(F)(F)F [AZD4320] + CS(=O)(=O)CCNCc1ccc(-c2ccc3ncnc(Nc4ccc(OCc5cccc(F)c5)c(Cl)c4)c3c2)o1 [Lapatinib] (first compound max 1 µM, 7x7, partner max 10 µM)",0.677,0.951,0.6,0.906,0.985,0.452,0.355,0.562,0.963,0.993,0.71,0.826,0.997,0.729,0.369,0.951,0.351,0.869,0.866,0.823
"CN(CCO)CC[C@H](CSc1ccccc1)Nc1ccc(S(=O)(=O)NC(=O)c2ccc(N3CCC([C@@H](O)c4ccccc4-c4ccc(Cl)cc4)CC3)cc2)cc1S(=O)(=O)C(F)(F)F [AZD4320] + C[C@@H](Nc1cc(F)cc(F)c1)c1cc(C(=O)N(C)C)cc2c(=O)cc(N3CCOCC3)oc12 [AZD8186] (first compound max 1 µM, 7x7, partner max 3 µM)",0.669,0.593,0.552,0.361,0.847,0.503,0.619,0.6,0.789,1,0.779,0.297,0.885,0.433,0.321,0.996,0.435,0.407,0.887,0.275
"CN(CCO)CC[C@H](CSc1ccccc1)Nc1ccc(S(=O)(=O)NC(=O)c2ccc(N3CCC([C@@H](O)c4ccccc4-c4ccc(Cl)cc4)CC3)cc2)cc1S(=O)(=O)C(F)(F)F [AZD4320] + Nc1ccn([C@@H]2O[C@H](CO)[C@@H](O)C2(F)F)c(=O)n1 [Gemcitabine] (first compound max 1 µM, 7x7, partner max 0.3 µM)",0.625,0.838,0.828,0.8,0.935,0.992,0.688,0.7,0.799,0.993,0.872,0.797,0.946,0.989,0.743,0.985,0.507,0.308,0.846,0.184
"Cc1c2c(nn1C)CSCc1cc(n(C)n1)CSc1cc(c3ccccc3c1)OCCCc1c(C(=O)O)n(C)c3c-2c(Cl)ccc13 [AZD5991] + CC(=O)O[C@H]1C(=O)[C@@]2(C)[C@H]([C@H](OC(=O)c3ccccc3)[C@]3(O)C[C@H](OC(=O)[C@H](O)[C@@H](NC(=O)c4ccccc4)c4ccccc4)C(C)=C1C3(C)C)[C@]1(OC(C)=O)CO[C@@H]1C[C@@H]2O [Paclitaxel] (first compound max 1 µM, 7x7, partner max 3 µM)",0.732,0.584,0.681,0.982,0.996,0.95,0.846,0.655,0.79,1,0.943,0.469,0.89,0.995,0.394,0.979,1,0.54,0.744,0.438
"Cc1c2c(nn1C)CSCc1cc(n(C)n1)CSc1cc(c3ccccc3c1)OCCCc1c(C(=O)O)n(C)c3c-2c(Cl)ccc13 [AZD5991] + CS(=O)(=O)CCNCc1ccc(-c2ccc3ncnc(Nc4ccc(OCc5cccc(F)c5)c(Cl)c4)c3c2)o1 [Lapatinib] (first compound max 1 µM, 7x7, partner max 10 µM)",0.346,0.529,0.261,0.786,0.961,0.206,0.237,0.491,0.851,0.936,0.877,0.337,0.443,0.506,0.257,0.555,0.827,0.347,0.488,0.395
"Cc1c2c(nn1C)CSCc1cc(n(C)n1)CSc1cc(c3ccccc3c1)OCCCc1c(C(=O)O)n(C)c3c-2c(Cl)ccc13 [AZD5991] + Nc1ccn([C@@H]2O[C@H](CO)[C@@H](O)C2(F)F)c(=O)n1 [Gemcitabine] (first compound max 1 µM, 7x7, partner max 0.3 µM)",0.374,0.724,0.608,0.81,0.967,0.837,0.544,0.713,0.707,0.853,0.869,0.684,0.457,0.917,0.559,0.947,0.834,0.341,0.77,0.203
"C[C@@H]1COCCN1c1cc(C2([S@](C)(=N)=O)CC2)nc(-c2ccnc3[nH]ccc23)n1 [AZD6738] + C1CC(C1)(C(=O)[O-])C(=O)[O-].N.N.[Pt+2] [Carboplatin] (first compound max 10 µM, 7x7, partner max 10 µM)",0.501,0.695,0.384,0.853,0.472,0.836,0.517,0.8,0.583,0.952,0.573,0.479,0.373,0.814,0.45,0.7,0.679,0.36,0.719,0.247
"C[C@@H]1COCCN1c1cc(C2([S@](C)(=N)=O)CC2)nc(-c2ccnc3[nH]ccc23)n1 [AZD6738] + Nc1ccn([C@@H]2O[C@H](CO)[C@@H](O)C2(F)F)c(=O)n1 [Gemcitabine] (first compound max 10 µM, 7x7, partner max 0.3 µM)",0.721,0.819,0.684,0.927,0.77,0.937,0.778,0.846,0.767,1,0.874,0.695,0.851,0.993,0.795,0.936,0.936,0.625,0.852,0.553
"Cc1cc2ncnn2cc1Nc1ncc2c(n1)n(C1CCOCC1)c(=O)n2C [AZD7648] + COc1cc([C@@H]2c3cc4c(cc3[C@@H](O[C@@H]3O[C@@H]5CO[C@@H](C)O[C@H]5[C@H](O)[C@H]3O)[C@H]3COC(=O)[C@H]23)OCO4)cc(OC)c1O [Etoposide] (first compound max 10 µM, 7x7, partner max 10 µM)",0.465,0.731,0.492,0.627,0.715,0.842,0.64,0.704,0.657,0.912,0.686,0.425,0.67,0.978,0.553,0.958,0.798,0.399,0.85,0.192
"N#Cc1cnc(Nc2cc(NC[C@H]3CNCCO3)c(C(F)(F)F)cn2)cn1 [SRA737] + O=c1[nH]cc(F)c(=O)[nH]1 [5-Fluorouracil] (first compound max 10 µM, 7x7, partner max 20 µM)",0.392,0.565,0.349,0.89,0.645,0.413,0.451,0.652,0.344,0.97,0.759,0.28,0.152,0.902,0.226,0.901,0.712,–,0.662,0.193
